pIC50: −log10 of the molar value.
Experiments:
EGFR = assay: Western blot degradation of EGFR (H1975 Cell); type: cell-based, Human; conditions: Table D2
Method: Conventional Western blot assay was performed to evaluate the effects of the compounds of the present disclosure on the expression of target proteins in cells.
(1) Cell Seeding and Protein Harvesting: The selected cells were processed according to the cell seeding procedure and protein harvesting procedure in Table III-2. Table III-2 Cell Seeding and Protein Harvesting Procedures
(2) To the collected supernatant, 5X SDS sample loading buffer was added, followed by denaturation at 95°C for 5 minutes. The denatured samples were then separated by SDS-PAGE electrophoresis on a polyacrylamide gel. Proteins were transferred to a nitrocellulose membrane (0.45 µm NC membrane), blocked with blocking buffer at room temperature for 1 hour, and subjected to antibody incubation and development procedures according to the antibody manufacturer's instructions (Cell Signaling Technology).
Half-Maximal Degradation Concentration value (the drug concentration required for degrading proteins by 50%, abbreviated as DC50) reads method: comparing the grayscale values of Western blot bands from drug-treated samples with those from blank DMSO-treated controls, and identifying the drug concentration range at which the grayscale value is half that of the DMSO-treated control bands.
DC50 values can be calculated using ImageJ software to measure grayscale values of Western blot bands from drug-treated samples. The concentration-response curve is fitted to estimate the drug concentration corresponding to half the grayscale value.
Target protein remaining (%) refers to the percentage of target protein remaining in hPBMC cells after treatment with protein degrader compounds.
Calculation method for target protein remaining (%): Use ImageJ software to measure grayscale values of Western blot bands from drug (protein degrader)-treated samples. The grayscale value of drug-treated bands is divided by that of internal control protein bands, and the resulting quotient is normalized to obtain the relative percentage of remaining target protein after protein degrader treatment.
Target protein degradation rate (%) = 100% - target protein remaining (%).

H1975 = assay: CCK-8 proliferation, NCI-H1975 (H1975); type: cell-based, Human; conditions: Homo sapiens, NCI-H1975; CCK-8; 96 hours; read-out: Inhibitory activity (IC50) on tumor cell proliferation, H1975
Method in brief: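 Tumor cells were cultured at 37°C with 5% CO2, seeded, and after 24h treated with compounds at 10 concentrations starting at 10µM (5-fold serial dilutions).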

Compound | Degradation of substrate protein EGFR (substrate protein remaining %) (EGFR) | pIC50 (H1975)
O=C1CCC(c2ccc(CN3C[C@@H]4C[C@H]3CN4c3ccc(-c4cc(F)c5c(c4)C(=O)N(C(C(=O)Nc4nccs4)c4ncn6c4CCC6)C5)cc3)cc2)C(=O)N1 (stereo partly drawn) [GT-05115, 2-(6,7-dihydro-5H-pyrrolo[1,2-c]imidazol-1-yl)-2-(6-(4-((1S,4S)-5-(4-(2,6-dioxopiperidin-3-yl)benzyl)-2,5-diazabicyclo[2.2.1]heptan-2-yl)phenyl)-4-fluoro-1-oxoisoindolin-2-yl)-N-(thiazol-2-yl)acetamide] | A (A is defined as 0% ≤ substrate protein remaining % ≤ 80%) | 7.30 to 8.00
O=C1CCN(c2ccc(CN3C[C@@H]4C[C@H]3CN4c3ccc(-c4cc(F)c5c(c4)C(=O)N(C(C(=O)Nc4nccs4)c4ncn6c4CCC6)C5)cc3)cc2)C(=O)N1 (stereo partly drawn) [GT-05116, 2-(6,7-dihydro-5H-pyrrolo[1,2-c]imidazol-1-yl)-2-(6-(4-((1S,4S)-5-(4-(2,4-dioxotetrahydropyrimidin-1(2H)-yl)benzyl)-2,5-diazabicyclo[2.2.1]heptan-2-yl)phenyl)-4-fluoro-1-oxoisoindolin-2-yl)-N-(thiazol-2-yl)acetamide] | A (A is defined as 0% ≤ substrate protein remaining % ≤ 80%) | 7.30 to 8.00
O=C1CCN(c2cccc(CN3C[C@@H]4C[C@H]3CN4c3ccc(-c4cc(F)c5c(c4)C(=O)N(C(C(=O)Nc4nccs4)c4ncn6c4CCC6)C5)cc3)c2)C(=O)N1 (stereo partly drawn) [GT-05117, 2-(6,7-dihydro-5H-pyrrolo[1,2-c]imidazol-1-yl)-2-(6-(4-((1S,4S)-5-(3-(2,4-dioxotetrahydropyrimidin-1(2H)-yl)benzyl)-2,5-diazabicyclo[2.2.1]heptan-2-yl)phenyl)-4-fluoro-1-oxoisoindolin-2-yl)-N-(thiazol-2-yl)acetamide] | A (A is defined as 0% ≤ substrate protein remaining % ≤ 80%) | 7.30 to 8.00
O=C1CCC(Nc2cccc(CN3C[C@@H]4C[C@H]3CN4c3ccc(-c4cc(F)c5c(c4)C(=O)N(C(C(=O)Nc4nccs4)c4ncn6c4CCC6)C5)cc3)c2)C(=O)N1 (stereo partly drawn) [GT-05118, 2-(6,7-dihydro-5H-pyrrolo[1,2-c]imidazol-1-yl)-2-(6-(4-((1S,4S)-5-(3-((2,6-dioxopiperidin-3-yl)amino)benzyl)-2,5-diazabicyclo[2.2.1]heptan-2-yl)phenyl)-4-fluoro-1-oxoisoindolin-2-yl)-N-(thiazol-2-yl)acetamide] | A (A is defined as 0% ≤ substrate protein remaining % ≤ 80%) | 7.00 to 7.30
COC1CCN(c2nccc(Nc3cc4c(cn3)c(N3CCN(Cc5ccc(N6CCC(=O)NC6=O)cn5)CC3)nn4C(C)C)n2)CC1 [GT-06039, 1-(6-((4-(1-isopropyl-6-((2-(4-methoxypiperidin-1-yl)pyrimidin-4-yl)amino)-1H-pyrazolo[4,3-c]pyridin-3-yl)piperazin-1-yl)methyl)pyridin-3-yl)dihydropyrimidine-2,4(1H,3H)-dione] | A (A is defined as 0% ≤ substrate protein remaining % ≤ 80%) | 
CC(C)n1nc(N2CCC(N3CCN(Cc4ccc(N5CCC(=O)NC5=O)cc4)CC3)CC2)c2cnc(Nc3ccnc(-c4cnn(S(=O)(=O)C5CC5)c4)n3)cc21 [GT-06079, 1-(4-((4-(1-(6-((2-(1-(cyclopropylsulfonyl)-1H-pyrazol-4-yl)pyrimidin-4-yl)amino)-1-isopropyl-1H-pyrazolo[4,3-c]pyridin-3-yl)piperidin-4-yl)piperazin-1-yl)methyl)phenyl)dihydropyr imidine-2,4(1H,3H)-dione] | A (A is defined as 0% ≤ substrate protein remaining % ≤ 80%) | 
CC(C)n1nc(N2CCC(N3CCN(Cc4cccc(NC5CCC(=O)NC5=O)c4)CC3)CC2)c2cnc(Nc3ccnc(-c4cnn(S(=O)(=O)C5CC5)c4)n3)cc21 (stereo not shown) [GT-06083, 3-((3-((4-(1-(6-((2-(1-(cyclopropylsulfonyl)-1H-pyrazol-4-yl)pyrimidin-4-yl)amino)-1-isopropyl-1H-pyrazolo[4,3-c]pyridin-3-yl)piperidin-4-yl)piperazin-1-yl)methyl)phenyl)amino)pip eridine-2,6-dione] | A (A is defined as 0% ≤ substrate protein remaining % ≤ 80%) | 
COC1CCN(c2nccc(Nc3cc4c(cn3)c(N3CCC(N(C)Cc5ccc(C6CCC(=O)NC6=O)cc5)CC3)nn4C(C)C)n2)CC1 (stereo not shown) [GT-06120, 3-(4-(((1-(1-isopropyl-6-((2-(4-methoxypiperidin-1-yl)pyrimidin-4-yl)amino)-1H-pyrazolo[4,3-c]pyridin-3-yl)piperidin-4-yl)(methyl)amino)methyl)phenyl)piperidine-2,6-dione] | A (A is defined as 0% ≤ substrate protein remaining % ≤ 80%) | 
COC1CCN(c2nccc(Nc3cc4c(cn3)c(N3CCC(N(C)Cc5ccc(N6CCC(=O)NC6=O)cc5)CC3)nn4C(C)C)n2)CC1 [GT-06121, 1-(4-(((1-(1-isopropyl-6-((2-(4-methoxypiperidin-1-yl)pyrimidin-4-yl)amino)-1H-pyrazolo[4,3-c]pyridin-3-yl)piperidin-4-yl)(methyl)amino)methyl)phenyl)dihydropyrimidine-2,4(1H,3H)-dione] | A (A is defined as 0% ≤ substrate protein remaining % ≤ 80%) | 
COC1CCN(c2nccc(Nc3cc4c(cn3)c(N3CCC(N(C)Cc5cccc(N6CCC(=O)NC6=O)c5)CC3)nn4C(C)C)n2)CC1 [GT-06122, 1-(3-(((1-(1-isopropyl-6-((2-(4-methoxypiperidin-1-yl)pyrimidin-4-yl)amino)-1H-pyrazolo[4,3-c]pyridin-3-yl)piperidin-4-yl)(methyl)amino)methyl)phenyl)dihydropyrimidine-2,4(1H,3H)-dione] | A (A is defined as 0% ≤ substrate protein remaining % ≤ 80%) | 
COC1CCN(c2nccc(Nc3cc4c(cn3)c(N3CCC(N(C)Cc5cccc(NC6CCC(=O)NC6=O)c5)CC3)nn4C(C)C)n2)CC1 (stereo not shown) [GT-06123, 3-((3-(((1-(1-isopropyl-6-((2-(4-methoxypiperidin-1-yl)pyrimidin-4-yl)amino)-1H-pyrazolo[4,3-c]pyridin-3-yl)piperidin-4-yl)(methyl)amino)methyl)phenyl)amino)piperidine-2,6-dione] | A (A is defined as 0% ≤ substrate protein remaining % ≤ 80%) | 
O=C1CCN(c2ccc(CN3C4CCC3CN(c3ccc(-c5cc(F)c6c(c5)C(=O)N(C(C(=O)Nc5nccs5)c5ncn7c5CCC7)C6)cc3)C4)cn2)C(=O)N1 (stereo not shown) [GT-06256, 2-(6,7-dihydro-5H-pyrrolo[1,2-c]imidazol-1-yl)-2-(6-(4-(8-((6-(2,4-dioxotetrahydropyrimidin-1(2H)-yl)pyridin-3-yl)methyl)-3,8-diazabicyclo[3.2.1]octan-3-yl)phenyl)-4-fluoro-1-oxoisoindolin-2-yl)-N-(thiazol-2-yl)acetamide] | A (A is defined as 0% ≤ substrate protein remaining % ≤ 80%) | 
CN(Cc1ccc(N2CCC(=O)NC2=O)cc1)C1CCN(c2ccc(Nc3ncc4nc(Nc5ccccc5)n(C5CCCC5)c4n3)cc2)CC1 [GT-07092, 1-(4-(((1-(4-((9-cyclopentyl-8-(phenylamino)-9H-purin-2-yl)amino)phenyl)piperidin-4-yl)(methyl)amino)methyl)phenyl)dihydropyrimidine-2,4(1H,3H)-dione] | A (A is defined as 0% ≤ substrate protein remaining % ≤ 80%) | 
CN(Cc1ccc(N2CCC(=O)NC2=O)cn1)C1CCN(c2ccc(Nc3ncc4nc(Nc5ccccc5)n(C5CCCC5)c4n3)cc2)CC1 [GT-07093, 1-(6-(((1-(4-((9-cyclopentyl-8-(phenylamino)-9H-purin-2-yl)amino)phenyl)piperidin-4-yl)(methyl)amino)methyl)pyridin-3-yl)dihydropyrimidine-2,4(1H,3H)-dione] | A (A is defined as 0% ≤ substrate protein remaining % ≤ 80%) | 
CN(Cc1cccc(NC2CCC(=O)NC2=O)c1)C1CCN(c2ccc(Nc3ncc4nc(Nc5ccccc5)n(C5CCCC5)c4n3)cc2)CC1 (stereo not shown) [GT-07094, 3-((3-(((1-(4-((9-cyclopentyl-8-(phenylamino)-9H-purin-2-yl)amino)phenyl)piperidin-4-yl)(methyl)amino)methyl)phenyl)amino)piperidine-2,6-dione] | A (A is defined as 0% ≤ substrate protein remaining % ≤ 80%) | 
